This is an account of results in patent US9371365B2, “Modified compstatin with peptide backbone and C-terminal modifications” (The Trustees of the University of Pennsylvania, priority 2009, dated 2016).

Read-outs that look alike come from different tables or passages of the source.

Broadly, the IC50 is the concentration needed to halve the response being measured.

One assay concerns the target T1, C3b (Homo sapiens, UniProt P01024).
T1 construct: biotin (chemical biotinylation of C3b)
Briefly: SPR analysis of binding kinetics to immobilized C3b. As to the method:
(§1) The kinetics of the interaction between C3b and each compstatin analog was analyzed by SPR on a Biacore 3000 instrument (GE Healthcare Corp., Piscataway, N.J.) at 25° C. using PBS-T (10 mM sodium phosphate, 150 mM NaCl, 0.005% Tween-20, pH 7.4) as the running buffer, as described above. In brief, biotinylated C3b (30 μg/mL) was immobilized on a streptavidin-coated sensor chip, and a two-fold serial dilution series (1 μM-500 pM) of each analog was injected for 2 min at 30 μl/min, with a dissociation phase of 5-10 min. Peptide [Trp(Me)^4]-Ac-compstatin was included in each experimental series as an internal control and reference. Data analysis was performed using Scrubber (BioLogic Software, Campbell, Australia). The signals from an untreated flow cell and an ensemble of buffer blank injections were subtracted to correct for buffer effects and injection artifacts. Processed biosensor data were globally fitted to a 1:1 Langmuir binding model, and the equilibrium dissociation constant (KD) was calculated from the equation KD=kd/ka. Peptide solutions were injected in duplicate in every experiment, and each screening assay was performed at least twice.
as §1, with “in Example 1.” for “above.”, “μg/ml)” for “μg/mL)”, “Peptide [Trp(Me)^4]-Ac-compstatin was included in each experimental series as an internal control and reference.” left out
In general terms: In SPR one partner is held on a chip, and binding of the other changes the refractive index at the surface.

A further assay addresses T2, C3 (Homo sapiens, UniProt P01024).
T2 construct: C3 was purified from fresh human plasma; from tissue; host or cells: fresh human plasma (blood bank of the Hospital of the University of Pennsylvania)
Briefly: ITC analysis of binding to C3. As to the method: C3 was purified from fresh human plasma obtained from the blood bank of the Hospital of the University of Pennsylvania. In brief, the plasma was fractionated with 15% (w/v) PEG 3350, and the pellet was resuspended in 20 mM phosphate buffer, pH 7.8, and then subjected to anion-exchange chromatography on a DEAE-HR 40 column (50×5 cm; Millipore Inc., Billerica, Mass.) with the same buffer. Proteins were eluted with 6 L of a linear gradient (15-70%) of 20 mM phosphate buffer, pH 7.8, containing 500 mM NaCl. C3 was further purified on a size-exclusion Superdex 200 26/60 column (Amersham Biosciences) and a Mono S column (Amersham Biosciences) to separate C3 from C3(H2O).
All titrations were performed in PBS (10 mM phosphate buffer with 150 mM NaCl, pH 7.4) at 25° C. using multiple peptide injections of 2-7 μL each. The raw isotherms were corrected for the heats of dilution by subtracting the isotherms representing peptide injections into the buffer. The resulting isotherms were fitted to a single site of sites models using Origin 7.0 software, and the model that produced the lowest χ^2 value was deemed to be appropriate for the respective data set. The Gibbs free energy was calculated as ΔG=ΔH−TΔS. Each experiment was repeated at least twice.
(In general: ITC needs no label: the signal is the heat of the interaction.)

In assay [1] the test system is classical pathway of complement. Nature of the assay: Inhibition of classical pathway complement activation, ELISA in human serum. The class given is biochemical. The method, then: The ability of the compstatin analogs to inhibit the activation of the classical pathway of complement was assessed by ELISA (Mallik et al., 2005, J Med Chem 48:274-86). In brief, complement was activated in human serum using an antigen-antibody complex in the presence or absence of compstatin analogs, and the deposition of C3 fragments on the plate surface was detected using an HRP-conjugated polyclonal anti-C3 antibody. […] The percent inhibition was plotted against the peptide concentration, and the resulting data set was fitted to the logistic dose-response function using Origin 7.0 software. IC50 values were obtained from the fitted parameters that produced the lowest χ^2 value. Each analog was assayed at least three to seven times.
The ability of the compstatin analogs to inhibit the activation of the classical pathway of complement was assessed by ELISA as described in Example 1. Each conjugate was assayed at least three times.

T2 sequence (P01024 23-667 limits assumed): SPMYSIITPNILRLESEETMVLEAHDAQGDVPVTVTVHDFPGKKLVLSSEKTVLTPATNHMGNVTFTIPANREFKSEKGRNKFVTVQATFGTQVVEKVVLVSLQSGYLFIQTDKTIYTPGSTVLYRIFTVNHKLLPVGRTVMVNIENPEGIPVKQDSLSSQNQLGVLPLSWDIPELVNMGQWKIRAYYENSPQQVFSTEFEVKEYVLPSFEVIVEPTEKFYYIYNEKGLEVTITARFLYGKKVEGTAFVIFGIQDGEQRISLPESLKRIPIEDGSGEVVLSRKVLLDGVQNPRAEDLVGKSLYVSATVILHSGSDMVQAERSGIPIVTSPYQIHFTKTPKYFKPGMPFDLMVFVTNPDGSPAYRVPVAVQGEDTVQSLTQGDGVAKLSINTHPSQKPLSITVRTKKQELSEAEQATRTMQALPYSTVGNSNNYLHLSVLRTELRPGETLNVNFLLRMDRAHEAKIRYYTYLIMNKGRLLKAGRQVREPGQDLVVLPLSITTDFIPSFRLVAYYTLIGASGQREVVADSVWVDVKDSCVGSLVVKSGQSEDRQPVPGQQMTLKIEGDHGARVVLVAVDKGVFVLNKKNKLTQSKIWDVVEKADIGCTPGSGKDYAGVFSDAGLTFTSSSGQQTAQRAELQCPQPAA
T2 sequence (P01024 672-1663 limits assumed): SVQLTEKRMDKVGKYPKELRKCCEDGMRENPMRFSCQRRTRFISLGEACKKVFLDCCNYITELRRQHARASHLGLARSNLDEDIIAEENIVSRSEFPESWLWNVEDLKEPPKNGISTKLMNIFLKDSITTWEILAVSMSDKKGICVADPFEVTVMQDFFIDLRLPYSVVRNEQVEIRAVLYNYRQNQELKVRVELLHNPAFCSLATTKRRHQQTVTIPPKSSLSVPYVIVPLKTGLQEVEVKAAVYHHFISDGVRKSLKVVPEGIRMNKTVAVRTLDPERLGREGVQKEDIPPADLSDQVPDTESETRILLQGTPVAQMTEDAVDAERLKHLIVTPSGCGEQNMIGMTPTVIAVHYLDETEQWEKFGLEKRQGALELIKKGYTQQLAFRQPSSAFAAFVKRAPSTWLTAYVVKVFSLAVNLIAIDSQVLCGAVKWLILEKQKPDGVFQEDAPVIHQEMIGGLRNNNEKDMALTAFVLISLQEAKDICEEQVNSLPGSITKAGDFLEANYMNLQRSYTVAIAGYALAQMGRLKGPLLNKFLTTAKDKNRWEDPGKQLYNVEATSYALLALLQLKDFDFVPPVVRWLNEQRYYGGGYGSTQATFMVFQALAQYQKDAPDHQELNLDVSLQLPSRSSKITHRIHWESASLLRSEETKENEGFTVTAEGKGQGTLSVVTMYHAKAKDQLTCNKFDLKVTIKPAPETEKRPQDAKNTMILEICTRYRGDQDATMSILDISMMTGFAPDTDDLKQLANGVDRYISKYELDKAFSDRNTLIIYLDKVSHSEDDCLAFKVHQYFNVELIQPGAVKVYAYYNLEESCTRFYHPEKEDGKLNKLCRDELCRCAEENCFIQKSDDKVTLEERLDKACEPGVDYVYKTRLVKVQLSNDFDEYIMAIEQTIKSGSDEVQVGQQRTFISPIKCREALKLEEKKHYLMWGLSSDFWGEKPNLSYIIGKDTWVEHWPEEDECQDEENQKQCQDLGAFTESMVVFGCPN
T1 sequence (P01024 23-667 limits assumed): as the sequence (P01024 23-667 limits assumed) above
T1 sequence (P01024 749-1663 limits assumed): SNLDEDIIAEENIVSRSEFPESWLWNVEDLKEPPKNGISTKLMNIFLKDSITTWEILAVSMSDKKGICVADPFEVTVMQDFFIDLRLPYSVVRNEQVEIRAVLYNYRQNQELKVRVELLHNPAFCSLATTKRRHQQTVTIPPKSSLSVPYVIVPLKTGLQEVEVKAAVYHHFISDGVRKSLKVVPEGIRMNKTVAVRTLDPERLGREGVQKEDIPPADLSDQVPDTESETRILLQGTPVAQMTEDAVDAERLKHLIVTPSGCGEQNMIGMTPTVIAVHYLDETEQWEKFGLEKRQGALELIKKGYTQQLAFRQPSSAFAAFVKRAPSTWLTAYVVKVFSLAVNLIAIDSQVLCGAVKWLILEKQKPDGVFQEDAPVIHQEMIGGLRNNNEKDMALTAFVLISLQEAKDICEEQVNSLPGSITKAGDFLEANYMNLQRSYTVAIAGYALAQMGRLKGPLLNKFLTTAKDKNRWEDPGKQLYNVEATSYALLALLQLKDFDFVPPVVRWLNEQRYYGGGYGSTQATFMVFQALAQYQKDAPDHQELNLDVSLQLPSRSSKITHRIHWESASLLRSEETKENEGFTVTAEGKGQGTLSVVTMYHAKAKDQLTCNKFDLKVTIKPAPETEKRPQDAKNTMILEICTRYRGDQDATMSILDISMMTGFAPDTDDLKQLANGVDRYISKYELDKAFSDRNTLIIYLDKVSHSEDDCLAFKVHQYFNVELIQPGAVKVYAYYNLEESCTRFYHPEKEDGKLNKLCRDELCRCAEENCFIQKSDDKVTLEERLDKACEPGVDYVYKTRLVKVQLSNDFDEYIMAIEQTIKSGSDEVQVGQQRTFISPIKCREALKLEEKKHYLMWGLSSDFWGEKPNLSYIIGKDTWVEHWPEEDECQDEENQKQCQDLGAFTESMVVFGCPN

As for `CC[C@H](C)[C@H](NC(=O)[C@@H]1CSSC[C@H](NC(=O)[C@@H](NC(C)=O)[C@@H](C)CC)C(=O)N[C@@H](C(C)C)C(=O)N[C@@H](Cc2cn(C)c3ccccc23)C(=O)N[C@@H](CCC(N)=O)C(=O)N[C@@H](CC(=O)O)C(=O)N[C@@H](Cc2c[nH]c3ccccc23)C(=O)N(C)CC(=O)N[C@@H](C)C(=O)N[C@@H](Cc2c[nH]cn2)C(=O)N[C@@H](CCCNC(=N)N)C(=O)N1)C(N)=O` [Peptide 17, Ac−Ic[CV(^1−MeW)QDW(^N−MeG)AHRC]I-NH2], the “fold stronger affinity than peptide 14” value at C3b (SPR) is 2.7 fold. Also, on C3b (SPR, 25° C., PBS-T), the kd is given as 6.6 10^−3/s. Moreover, at C3b (SPR, Table 2-1), the Koff is 6.6 10^−3, s^−1 and the Kon is 1.0 10^6, M^−1 · s^−1. The kon on C3b (pH 7.4, read-out: ka) was found to be 1.5e+06 M⁻¹ s⁻¹. Moreover, at C3b (relative to peptide 14), the “rKD SPR” value worked out at 2.7, the rka was 1.5 and the rkd is 1.7. For the same molecule, at C3 (ITC), the ΔH is -14.1 kcal/mol, the “ΔH (text)” value was -14.1 kcal/mol, the “−TΔS” value is 2.9 kcal/mol and the “−TΔS (text)” value is recorded as 2.9 kcal/mol. The molecule further registered a ΔG on C3 (ITC, ΔG=ΔH−TΔS) of -11.2 kcal/mol. At C3 (relative to peptide 14), the “rKD ITC” value was determined as 2.4, the ΔΔG is -0.5 kcal/mol, the ΔΔH turned out to be 3.5 kcal/mol and the “−TΔΔS” value is -4.1 kcal/mol. In addition, the IC50 in assay [1] (Table 1-2, read-out: IC50) was 92 nM. Moreover, the concentration for half-maximal inhibition (IC50) in assay [1] (classical pathway, human serum, Table 2-1, read-out: IC50 (nM, CP)) was determined as 92 nM. In addition, the IC50 in assay [1] (exemplary analogs table, read-out: IC50) came out at 92 nM. In addition, the rP in assay [1] (relative potency compared to peptide 14) is 2.2. Moreover, in assay [1] (relative to peptide 17), the “IC50 (fold change)” value came to 1.
